Patent publication US11878975B2, “Substituted indole compounds useful as TLR inhibitors” (BRISTOL-MYERS SQUIBB COMPANY, priority 2017, dated 2024)

Tests used:
Assay type in all cases: cell-based
human TLR7 = target: T1, human TLR7 (Homo sapiens, UniProt Q9NYK1); assay: TLR7 inhibition reporter assay (HEK-Blue cells, SEAP reporter, gardiquimod stimulation); settings: HEK-Blue cells overexpressing human TLR7, SEAP reporter, gardiquimod 7.5 μM
T1 construct: host or cells: HEK-Blue cells
T1 sequence (Q9NYK1 27-1049): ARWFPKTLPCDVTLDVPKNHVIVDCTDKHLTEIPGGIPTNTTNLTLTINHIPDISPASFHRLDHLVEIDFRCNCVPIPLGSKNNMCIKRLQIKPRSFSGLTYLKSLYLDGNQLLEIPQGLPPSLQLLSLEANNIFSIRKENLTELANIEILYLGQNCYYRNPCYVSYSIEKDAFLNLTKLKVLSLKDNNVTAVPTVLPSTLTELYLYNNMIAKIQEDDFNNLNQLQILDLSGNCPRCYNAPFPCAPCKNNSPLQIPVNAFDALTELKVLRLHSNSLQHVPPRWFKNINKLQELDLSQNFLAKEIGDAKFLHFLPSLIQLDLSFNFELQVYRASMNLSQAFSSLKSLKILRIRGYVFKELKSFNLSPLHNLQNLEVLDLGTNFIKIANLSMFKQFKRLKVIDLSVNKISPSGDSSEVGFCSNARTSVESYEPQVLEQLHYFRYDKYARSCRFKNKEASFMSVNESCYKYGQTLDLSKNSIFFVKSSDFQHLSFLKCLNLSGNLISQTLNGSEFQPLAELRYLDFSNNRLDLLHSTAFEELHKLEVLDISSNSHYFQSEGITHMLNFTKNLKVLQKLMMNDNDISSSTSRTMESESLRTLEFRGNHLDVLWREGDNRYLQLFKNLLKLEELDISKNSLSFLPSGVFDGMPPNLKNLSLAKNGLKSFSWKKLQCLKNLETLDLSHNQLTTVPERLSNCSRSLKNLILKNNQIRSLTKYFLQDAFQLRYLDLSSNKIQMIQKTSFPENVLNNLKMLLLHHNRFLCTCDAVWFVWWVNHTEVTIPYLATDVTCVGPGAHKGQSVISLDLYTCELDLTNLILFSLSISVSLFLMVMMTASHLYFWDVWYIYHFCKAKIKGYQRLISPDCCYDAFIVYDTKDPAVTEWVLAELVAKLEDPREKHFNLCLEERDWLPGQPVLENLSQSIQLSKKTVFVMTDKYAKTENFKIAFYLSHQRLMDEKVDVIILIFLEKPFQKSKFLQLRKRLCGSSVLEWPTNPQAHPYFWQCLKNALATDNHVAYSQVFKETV
How it was run: (§1)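 Ligand levels: TLR7 gardiquimod 7.5 μM, TLR8 R848 15.9 μM, TLR9 ODN2006 5 nM, added after 30 min room-temperature compound pre-incubation at 0.05 nM-50 μM. Reporter SEAP read with HEK-Blue Detection reagent after 22 h, 37° C. Inhibition expressed as % reduction relative to agonist-plus-DMSO and known-inhibitor controls.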

human TLR8 = target: T2, human TLR8 (Homo sapiens, UniProt Q9NR97); assay: TLR8 inhibition reporter assay (HEK-Blue cells, SEAP reporter, R848 stimulation); settings: HEK-Blue cells overexpressing human TLR8, SEAP reporter, R848 15.9 μM
T2 construct: host or cells: HEK-Blue cells
T2 sequence (Q9NR97 27-1041): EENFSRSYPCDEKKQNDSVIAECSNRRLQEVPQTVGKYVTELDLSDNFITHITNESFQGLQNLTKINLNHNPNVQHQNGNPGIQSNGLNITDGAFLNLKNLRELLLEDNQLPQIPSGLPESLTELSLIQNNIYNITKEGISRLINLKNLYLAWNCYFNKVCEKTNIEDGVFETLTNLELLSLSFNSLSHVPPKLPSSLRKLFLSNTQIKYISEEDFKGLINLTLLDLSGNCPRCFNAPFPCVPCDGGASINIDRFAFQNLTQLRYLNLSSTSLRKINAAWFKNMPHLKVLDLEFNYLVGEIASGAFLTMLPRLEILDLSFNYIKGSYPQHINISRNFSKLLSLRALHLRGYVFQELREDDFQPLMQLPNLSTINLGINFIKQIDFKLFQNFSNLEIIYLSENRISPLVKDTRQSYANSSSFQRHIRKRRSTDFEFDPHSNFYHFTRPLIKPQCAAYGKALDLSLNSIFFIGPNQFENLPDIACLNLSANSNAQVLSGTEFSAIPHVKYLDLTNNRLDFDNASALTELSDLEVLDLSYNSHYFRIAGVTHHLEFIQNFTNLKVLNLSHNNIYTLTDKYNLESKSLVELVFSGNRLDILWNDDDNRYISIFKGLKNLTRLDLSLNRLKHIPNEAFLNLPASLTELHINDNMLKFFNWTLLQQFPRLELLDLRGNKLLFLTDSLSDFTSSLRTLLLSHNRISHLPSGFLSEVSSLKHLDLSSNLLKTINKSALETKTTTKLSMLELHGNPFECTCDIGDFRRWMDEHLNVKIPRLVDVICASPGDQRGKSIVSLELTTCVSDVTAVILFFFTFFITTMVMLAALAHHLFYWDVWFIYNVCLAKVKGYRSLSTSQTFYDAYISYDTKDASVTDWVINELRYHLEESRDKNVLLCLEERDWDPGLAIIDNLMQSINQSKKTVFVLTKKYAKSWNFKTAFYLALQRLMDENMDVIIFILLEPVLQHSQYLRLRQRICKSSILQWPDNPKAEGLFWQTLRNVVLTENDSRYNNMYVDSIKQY
How it was run: as §1

human TLR9 = target: T3, human TLR9 (Homo sapiens, UniProt Q9NR96); assay: TLR9 inhibition reporter assay (HEK-Blue cells, SEAP reporter, ODN2006 stimulation); settings: HEK-Blue cells overexpressing human TLR9, SEAP reporter, ODN2006 5 nM
T3 construct: host or cells: HEK-Blue cells
T3 sequence (Q9NR96 26-1032): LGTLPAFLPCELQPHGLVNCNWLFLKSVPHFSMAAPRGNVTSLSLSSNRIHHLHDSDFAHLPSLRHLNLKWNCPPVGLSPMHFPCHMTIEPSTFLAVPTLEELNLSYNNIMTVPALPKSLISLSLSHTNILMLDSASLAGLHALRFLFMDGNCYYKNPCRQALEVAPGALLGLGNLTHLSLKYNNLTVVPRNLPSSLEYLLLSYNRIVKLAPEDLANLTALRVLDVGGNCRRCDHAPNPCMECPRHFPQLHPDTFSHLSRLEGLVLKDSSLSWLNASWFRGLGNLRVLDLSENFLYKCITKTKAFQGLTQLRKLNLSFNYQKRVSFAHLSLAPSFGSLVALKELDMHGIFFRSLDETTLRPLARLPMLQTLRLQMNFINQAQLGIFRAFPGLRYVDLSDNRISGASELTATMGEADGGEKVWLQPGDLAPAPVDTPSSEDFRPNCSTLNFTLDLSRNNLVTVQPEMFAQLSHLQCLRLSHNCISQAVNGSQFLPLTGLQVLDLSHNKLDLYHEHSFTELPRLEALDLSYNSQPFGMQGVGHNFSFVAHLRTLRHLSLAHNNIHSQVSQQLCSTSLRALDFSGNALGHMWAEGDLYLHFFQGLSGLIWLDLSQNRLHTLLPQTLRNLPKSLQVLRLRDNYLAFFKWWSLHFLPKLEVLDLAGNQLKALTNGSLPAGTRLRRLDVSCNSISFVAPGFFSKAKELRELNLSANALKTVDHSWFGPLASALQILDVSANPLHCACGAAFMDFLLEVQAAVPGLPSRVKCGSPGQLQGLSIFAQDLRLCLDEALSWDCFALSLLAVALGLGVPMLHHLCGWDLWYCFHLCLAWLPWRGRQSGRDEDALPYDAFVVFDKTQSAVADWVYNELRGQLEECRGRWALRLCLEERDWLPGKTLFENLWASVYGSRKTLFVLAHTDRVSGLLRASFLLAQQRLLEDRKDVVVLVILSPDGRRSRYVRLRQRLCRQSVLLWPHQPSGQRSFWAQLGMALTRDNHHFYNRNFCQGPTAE
How it was run: as §1

SMILES | IC50 (human TLR7) | IC50 (human TLR8) | IC50 (human TLR9)
Cc1c(-c2[nH]c3ccc(C4CCCNC4)cc3c2C(C)C)ccc2ncnn12 (stereo not drawn) [Example 188] | 161 nM | 66 nM | 7050 nM
Cc1c(-c2[nH]c3ccc(C4CCCNC4)cc3c2C(C)C)cn2ncnc2c1C (stereo not drawn) [Example 189] | 0.34 nM | 0.23 nM | 1030 nM
Cc1c(-c2[nH]c3ccc(C4CCCNC4)cc3c2C(C)C)cn2ncnc2c1C (stereo not drawn) [Example 190] | 0.43 nM | 0.35 nM | 851 nM
COc1cc(-c2[nH]c3ccc(C4CCCN(C(=O)CN(C)C)C4)cc3c2C(C)C)cn2ncnc12 (stereo not drawn) [Example 191] | 0.34 nM | 2.6 nM | 1870 nM
COc1cc(-c2[nH]c3ccc(C4CCCN(C(=O)CN(C)C)C4)cc3c2C(C)C)cn2ncnc12 (stereo not drawn) [Example 192] | 0.49 nM | 5.9 nM | 2830 nM
Cc1c(-c2[nH]c3ccc(C4CCCN(C(=O)CN(C)C)C4)cc3c2C(C)C)cn2ncnc2c1C (stereo not drawn) [Example 193] | 1 nM | 2.9 nM | 6420 nM
COc1cc(-c2[nH]c3ccc(C4CCCN(C(=O)C5CCN(C)CC5)C4)cc3c2C(C)C)cn2ncnc12 (stereo not drawn) [Example 194] | 6 nM | 23 nM | 12000 nM
COc1ccc(-c2[nH]c3ccc(C4CCCN(C(=O)CN(C)C)C4)cc3c2C(C)C)cc1OC (stereo not drawn) [Example 195] | 20 nM | 43 nM | 2210 nM
Cc1cc(-c2[nH]c3ccc(C4CCCN(C(=O)CN5CCOCC5)C4)cc3c2C(C)C)cc(C)n1 (stereo not drawn) [Example 196] | 16 nM | 84 nM | 31600 nM
Cc1cc(-c2[nH]c3ccc(C4CCCN(C(=O)CN5CCOCC5)C4)cc3c2C(C)C)cc(C)n1 (stereo not drawn) [Example 197] | 2 nM | 16 nM | 44600 nM
Cc1cc(-c2[nH]c3ccc(C4CCCN(C(=O)C5C(C)(C)C5(C)C)C4)cc3c2C(C)C)cc(C)n1 (stereo not drawn) [Example 198] | 384 nM | 1100 nM | 23800 nM
Cc1cc(-c2[nH]c3ccc(C4CCCN(C(=O)C5(C)CC5)C4)cc3c2C(C)C)cc(C)n1 (stereo not drawn) [Example 199] | 89 nM | 427 nM | 36900 nM
Cc1cc(-c2[nH]c3ccc(C4CCCN(C(=O)C5C(C)(C)C5(C)C)C4)cc3c2C(C)C)cc(C)n1 (stereo not drawn) [Example 200] | 40 nM | 244 nM | 26500 nM
Cc1cc(-c2[nH]c3ccc(C4CCCN(C(=O)C5(N)CC5)C4)cc3c2C(C)C)cc(C)n1 (stereo not drawn) [Example 201] | 7 nM | 109 nM | 19300 nM
Cc1cc(-c2[nH]c3ccc(C4CCCN(C(=O)C5(C)CC5)C4)cc3c2C(C)C)cc(C)n1 (stereo not drawn) [Example 202] | 4 nM | 35 nM | 12200 nM
Cc1cc(-c2[nH]c3ccc(C4CCCN(C(=O)C5(C)COC5)C4)cc3c2C(C)C)cc(C)n1 (stereo not drawn) [Example 203] | 56 nM | 345 nM | 43900 nM
Cc1cc(-c2[nH]c3ccc(C4CCCN(C(=O)C5(C)COC5)C4)cc3c2C(C)C)cc(C)n1 (stereo not drawn) [Example 204] | 4 nM | 55 nM | > 50000 nM
COCC(=O)N1CCCC(c2ccc3[nH]c(-c4cc(C)nc(C)c4)c(C(C)C)c3c2)C1 (stereo not drawn) [Example 205] | 120 nM | 402 nM | > 50000 nM
COCCC(=O)N1CCCC(c2ccc3[nH]c(-c4cc(C)nc(C)c4)c(C(C)C)c3c2)C1 (stereo not drawn) [Example 207] | 24 nM | 97 nM | 43500 nM
COCCC(=O)N1CCCC(c2ccc3[nH]c(-c4cc(C)nc(C)c4)c(C(C)C)c3c2)C1 (stereo not drawn) [Example 208] | 6 nM | 43 nM | > 50000 nM
CNCC(=O)N1CCCC(c2ccc3[nH]c(-c4cc(OC)c5ncnn5c4)c(C(C)C)c3c2)C1 (stereo not drawn) [Example 211, 1-(3-(3-isopropyl-2-(8-methoxy-[1,2,4]triazolo[1,5-a]pyridin-6-yl)-1H-indol-5-yl)piperidin-1-yl)-2-(methylamino)ethan-1-one] | 3 nM | 11 nM | 8000 nM
CNCC(=O)N1CCCC(c2ccc3[nH]c(-c4cc(OC)c5ncnn5c4)c(C(C)C)c3c2)C1 (stereo not drawn) [Example 212] | 3 nM | 13 nM | 8470 nM
CNCC(=O)N1CCCC(c2ccc3[nH]c(-c4cn5ncnc5c(C)c4C)c(C(C)C)c3c2)C1 (stereo not drawn) [Example 213] | 3 nM | 5 nM | 6520 nM
CNCC(=O)N1CCCC(c2ccc3[nH]c(-c4cn5ncnc5c(C)c4C)c(C(C)C)c3c2)C1 (stereo not drawn) [Example 214] | 2 nM | 2.9 nM | 5880 nM
Cc1cc(-c2[nH]c3ccc(C4CCCN(C(=O)C5CNC5)C4)cc3c2C(C)C)cc(C)n1 (stereo not drawn) [Example 215] | 19 nM | 123 nM | 677 nM
CN[C@@H](C)C(=O)N1CCCC(c2ccc3[nH]c(-c4cc(C)nc(C)c4)c(C(C)C)c3c2)C1 (stereo partly drawn) [Example 216] | 7 nM | 18 nM | 303 nM
